What all share (assay type): biochemical
Experiment [1] addresses T1, Lck (Homo sapiens, UniProt P06239).
T1 construct: Kinases are expressed as either kinase domains or full length constructs; made in house
As to the kind of experiment: Kinase inhibition assay (33P transfer), Lck. Conditions: Table 3, class symbols; read-out: Lck-1. The procedure, abridged:
(§1)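 33P-ATP transfer to coated synthetic polymer substrates; acid wash (0.5% H3PO4), scintillant, liquid scintillation count. Enzymes: His- or GST-fusion kinases from E. coli or High Five insect cells.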

In experiment [2] the target is T2, Zap-70 (Homo sapiens, UniProt P43403).
T2 construct: Kinases are expressed as either kinase domains or full length constructs; made in house
T2 sequence (P43403 1-619): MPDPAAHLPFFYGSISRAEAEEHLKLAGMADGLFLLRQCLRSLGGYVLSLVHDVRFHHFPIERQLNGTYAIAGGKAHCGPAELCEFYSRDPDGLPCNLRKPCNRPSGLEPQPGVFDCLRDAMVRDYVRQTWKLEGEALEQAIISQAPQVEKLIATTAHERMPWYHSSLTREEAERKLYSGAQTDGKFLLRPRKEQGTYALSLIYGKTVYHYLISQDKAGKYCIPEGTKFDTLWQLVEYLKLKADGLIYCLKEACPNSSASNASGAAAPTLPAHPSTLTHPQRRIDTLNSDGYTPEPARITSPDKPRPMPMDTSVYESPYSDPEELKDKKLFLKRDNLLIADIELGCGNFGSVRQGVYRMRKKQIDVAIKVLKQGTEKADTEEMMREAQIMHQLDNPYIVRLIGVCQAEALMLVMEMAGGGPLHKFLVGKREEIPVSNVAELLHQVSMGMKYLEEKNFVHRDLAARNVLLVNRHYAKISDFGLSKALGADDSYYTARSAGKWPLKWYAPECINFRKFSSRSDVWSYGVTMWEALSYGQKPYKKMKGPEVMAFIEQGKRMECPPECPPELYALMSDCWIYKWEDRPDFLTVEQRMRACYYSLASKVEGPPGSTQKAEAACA
As to the kind of experiment: Kinase inhibition assay (33P transfer), Zap-70. Conditions: Table 3, class symbols; read-out: Zap-1. The procedure, abridged: as §1

In experiment [3] the target is T3, Itk (Homo sapiens, UniProt Q08881).
T3 construct: Kinases are expressed as either kinase domains or full length constructs; made in house
T3 sequence (Q08881 1-620): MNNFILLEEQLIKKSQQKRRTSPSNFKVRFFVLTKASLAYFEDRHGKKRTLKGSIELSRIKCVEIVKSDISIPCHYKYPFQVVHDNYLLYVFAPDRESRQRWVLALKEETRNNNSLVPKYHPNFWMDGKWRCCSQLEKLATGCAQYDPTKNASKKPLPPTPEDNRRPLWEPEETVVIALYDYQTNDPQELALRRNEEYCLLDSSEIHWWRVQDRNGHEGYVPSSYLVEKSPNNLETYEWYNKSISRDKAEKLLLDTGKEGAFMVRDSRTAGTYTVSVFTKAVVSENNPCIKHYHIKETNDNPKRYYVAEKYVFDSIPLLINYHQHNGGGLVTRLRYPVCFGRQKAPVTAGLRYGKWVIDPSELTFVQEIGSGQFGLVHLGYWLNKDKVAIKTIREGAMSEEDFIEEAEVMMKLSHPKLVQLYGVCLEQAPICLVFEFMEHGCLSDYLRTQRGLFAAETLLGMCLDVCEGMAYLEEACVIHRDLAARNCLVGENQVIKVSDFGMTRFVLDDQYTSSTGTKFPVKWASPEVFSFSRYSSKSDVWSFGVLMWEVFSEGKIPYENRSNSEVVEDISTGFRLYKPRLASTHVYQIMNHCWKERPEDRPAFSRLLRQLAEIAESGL
Put plainly: Kinase inhibition assay (33P transfer), Itk. Conditions: Table 3, class symbols; read-out: Itk-1. The essentials:
(§2)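 IC50: inhibitor concentration lowering 33P incorporation into immobilised substrate by 50%. Label transferred from ATP to poly(Glu,Tyr) 4:1 or poly(Arg,Ser) 3:1 is measured after a 0.5% phosphoric acid wash by liquid scintillation.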

The target in experiment [4] is T4, EGFR (Homo sapiens, UniProt P00533).
T4 construct: Kinases are expressed as either kinase domains or full length constructs; made in house
T4 sequence (P00533 25-1210, species assumed): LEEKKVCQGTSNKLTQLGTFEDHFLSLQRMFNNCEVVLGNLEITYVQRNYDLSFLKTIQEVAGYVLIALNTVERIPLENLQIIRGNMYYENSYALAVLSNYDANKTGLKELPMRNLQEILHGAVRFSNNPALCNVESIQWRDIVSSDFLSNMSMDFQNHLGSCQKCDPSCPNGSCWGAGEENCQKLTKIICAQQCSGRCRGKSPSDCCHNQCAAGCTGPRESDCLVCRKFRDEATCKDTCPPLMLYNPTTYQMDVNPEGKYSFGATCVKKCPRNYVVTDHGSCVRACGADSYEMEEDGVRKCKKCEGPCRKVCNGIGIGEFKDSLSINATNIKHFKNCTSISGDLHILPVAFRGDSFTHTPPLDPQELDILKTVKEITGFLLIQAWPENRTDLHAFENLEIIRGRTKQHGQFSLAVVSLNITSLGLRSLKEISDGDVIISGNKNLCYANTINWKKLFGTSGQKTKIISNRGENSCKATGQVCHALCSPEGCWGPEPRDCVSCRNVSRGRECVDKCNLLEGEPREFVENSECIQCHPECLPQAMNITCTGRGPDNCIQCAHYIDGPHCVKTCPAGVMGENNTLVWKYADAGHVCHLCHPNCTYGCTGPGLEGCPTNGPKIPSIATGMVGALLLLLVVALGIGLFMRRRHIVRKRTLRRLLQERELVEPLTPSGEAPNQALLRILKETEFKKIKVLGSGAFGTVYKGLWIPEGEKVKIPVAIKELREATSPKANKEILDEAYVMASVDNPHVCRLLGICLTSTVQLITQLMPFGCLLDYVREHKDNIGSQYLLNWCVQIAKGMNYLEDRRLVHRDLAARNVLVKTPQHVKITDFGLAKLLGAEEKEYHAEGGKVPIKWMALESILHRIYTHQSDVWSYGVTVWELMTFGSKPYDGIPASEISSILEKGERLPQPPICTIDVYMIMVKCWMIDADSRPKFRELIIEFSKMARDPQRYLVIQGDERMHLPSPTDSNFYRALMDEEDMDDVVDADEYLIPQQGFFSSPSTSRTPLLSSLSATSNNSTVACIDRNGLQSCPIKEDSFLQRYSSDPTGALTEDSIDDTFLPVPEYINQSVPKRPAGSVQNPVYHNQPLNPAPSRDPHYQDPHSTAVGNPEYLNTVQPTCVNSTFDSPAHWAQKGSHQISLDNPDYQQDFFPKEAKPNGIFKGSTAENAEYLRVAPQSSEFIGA
As to the kind of experiment: Kinase inhibition assay (33P transfer), EGFR. The settings on record: Table 2, class symbols A-E; read-out: EGFR-1. The essentials: as §2

Experiment [5] has as its target T5, ErbB2 (Homo sapiens, UniProt P04626).
T5 construct: Kinases are expressed as either kinase domains or full length constructs; made in house
Put plainly: Kinase inhibition assay (33P transfer), ErbB2. Conditions: read-out: ErbB2-2. The procedure, abridged:
as §2

Experiment [6] deals with T6, Kdr (Homo sapiens, UniProt P35968).
T6 construct: Kinases are expressed as either kinase domains or full length constructs; made in house
As to the kind of experiment: Kinase inhibition assay (33P transfer), Kdr. The settings on record: Table 3, class symbols; read-out: KDR-1. The procedure, abridged:
as §1

The target of experiment [7] is T7, c-Met (Homo sapiens, UniProt P08581).
T7 construct: Kinases are expressed as either kinase domains or full length constructs; made in house
T7 sequence (P08581 25-1390): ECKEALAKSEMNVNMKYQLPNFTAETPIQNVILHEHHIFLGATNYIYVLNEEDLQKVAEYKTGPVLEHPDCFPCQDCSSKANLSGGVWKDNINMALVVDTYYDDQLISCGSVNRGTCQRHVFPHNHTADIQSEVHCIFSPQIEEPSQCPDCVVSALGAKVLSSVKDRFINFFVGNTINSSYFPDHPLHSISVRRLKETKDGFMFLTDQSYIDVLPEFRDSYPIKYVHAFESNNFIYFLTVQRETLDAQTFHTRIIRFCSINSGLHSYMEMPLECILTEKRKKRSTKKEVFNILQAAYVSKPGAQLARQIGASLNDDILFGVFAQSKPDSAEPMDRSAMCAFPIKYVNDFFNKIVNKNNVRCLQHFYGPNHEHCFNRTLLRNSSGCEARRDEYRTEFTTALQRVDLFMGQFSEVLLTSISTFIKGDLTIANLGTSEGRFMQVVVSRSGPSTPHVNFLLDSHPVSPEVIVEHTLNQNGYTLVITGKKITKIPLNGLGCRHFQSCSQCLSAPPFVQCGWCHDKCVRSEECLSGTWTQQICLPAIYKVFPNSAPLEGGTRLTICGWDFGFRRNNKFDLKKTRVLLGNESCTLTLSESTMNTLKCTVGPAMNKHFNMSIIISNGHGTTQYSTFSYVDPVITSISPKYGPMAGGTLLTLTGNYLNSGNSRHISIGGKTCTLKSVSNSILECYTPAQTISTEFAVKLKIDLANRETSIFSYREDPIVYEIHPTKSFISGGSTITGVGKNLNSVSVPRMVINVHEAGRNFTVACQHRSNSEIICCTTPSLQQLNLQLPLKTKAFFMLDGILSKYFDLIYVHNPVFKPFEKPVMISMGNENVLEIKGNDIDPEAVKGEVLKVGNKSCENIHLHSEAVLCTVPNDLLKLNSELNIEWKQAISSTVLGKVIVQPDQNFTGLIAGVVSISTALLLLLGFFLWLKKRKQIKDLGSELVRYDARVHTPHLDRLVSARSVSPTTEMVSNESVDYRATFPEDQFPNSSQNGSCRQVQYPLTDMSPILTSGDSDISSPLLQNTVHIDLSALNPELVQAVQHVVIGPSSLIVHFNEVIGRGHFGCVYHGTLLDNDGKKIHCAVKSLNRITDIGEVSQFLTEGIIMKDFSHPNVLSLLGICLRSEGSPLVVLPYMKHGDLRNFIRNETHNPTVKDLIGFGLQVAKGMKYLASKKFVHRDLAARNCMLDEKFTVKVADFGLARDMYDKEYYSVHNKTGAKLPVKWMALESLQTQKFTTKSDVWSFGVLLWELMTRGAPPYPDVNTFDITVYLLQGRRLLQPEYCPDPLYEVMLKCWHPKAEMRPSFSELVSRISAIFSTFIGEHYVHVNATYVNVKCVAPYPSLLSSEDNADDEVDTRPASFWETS
Put plainly: Kinase inhibition assay (33P transfer), c-Met. Conditions: Table 2, class symbols A-E; read-out: Met-1. The procedure, abridged: as §2

Experiment [8] concerns the target T8, AKT (Homo sapiens, UniProt Q9Y243).
T8 construct: Kinases are expressed as either kinase domains or full length constructs; made in house
Put plainly: Kinase inhibition assay (33P transfer), AKT. The settings on record: Table 2, class symbols A-E; read-out: AKT3-1. The procedure, abridged:
as §1

For experiment [9], the target named is T9, IGFR-1 (Homo sapiens, UniProt P08069).
T9 construct: Kinases are expressed as either kinase domains or full length constructs; made in house
T9 sequence (P08069 31-1367): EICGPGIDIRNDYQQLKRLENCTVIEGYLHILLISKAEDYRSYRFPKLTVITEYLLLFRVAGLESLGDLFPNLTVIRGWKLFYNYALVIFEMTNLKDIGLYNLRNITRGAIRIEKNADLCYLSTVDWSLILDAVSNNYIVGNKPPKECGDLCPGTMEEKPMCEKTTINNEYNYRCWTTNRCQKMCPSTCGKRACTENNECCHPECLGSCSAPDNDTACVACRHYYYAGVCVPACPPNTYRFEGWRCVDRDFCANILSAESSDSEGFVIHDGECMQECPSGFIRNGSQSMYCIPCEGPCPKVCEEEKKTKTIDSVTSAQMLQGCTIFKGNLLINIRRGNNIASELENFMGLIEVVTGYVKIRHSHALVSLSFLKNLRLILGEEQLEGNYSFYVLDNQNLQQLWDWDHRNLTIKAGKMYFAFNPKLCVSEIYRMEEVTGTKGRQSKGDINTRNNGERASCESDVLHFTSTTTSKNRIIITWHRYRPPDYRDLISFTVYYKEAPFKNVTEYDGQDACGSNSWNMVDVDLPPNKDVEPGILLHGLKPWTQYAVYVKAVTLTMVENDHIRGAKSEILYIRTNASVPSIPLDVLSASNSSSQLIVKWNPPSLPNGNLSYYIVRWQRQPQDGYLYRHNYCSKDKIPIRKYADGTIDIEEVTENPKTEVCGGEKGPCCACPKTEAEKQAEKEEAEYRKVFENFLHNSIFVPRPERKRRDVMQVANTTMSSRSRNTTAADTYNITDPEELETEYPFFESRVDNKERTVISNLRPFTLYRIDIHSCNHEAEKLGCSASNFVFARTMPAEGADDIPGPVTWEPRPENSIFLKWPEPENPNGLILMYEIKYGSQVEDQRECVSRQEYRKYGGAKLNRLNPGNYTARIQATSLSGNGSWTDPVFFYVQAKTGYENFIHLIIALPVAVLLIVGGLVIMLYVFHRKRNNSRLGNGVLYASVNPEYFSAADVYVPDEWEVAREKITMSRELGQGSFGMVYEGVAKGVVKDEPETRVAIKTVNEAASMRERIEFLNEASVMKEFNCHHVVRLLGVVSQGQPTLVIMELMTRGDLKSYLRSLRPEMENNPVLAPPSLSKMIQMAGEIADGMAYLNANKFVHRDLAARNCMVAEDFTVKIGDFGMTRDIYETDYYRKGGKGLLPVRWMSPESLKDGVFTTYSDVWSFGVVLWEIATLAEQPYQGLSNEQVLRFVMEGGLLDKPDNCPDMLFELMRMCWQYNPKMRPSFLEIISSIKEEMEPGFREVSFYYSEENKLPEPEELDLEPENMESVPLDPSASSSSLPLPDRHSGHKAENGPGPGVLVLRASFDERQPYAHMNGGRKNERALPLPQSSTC
As to the kind of experiment: Kinase inhibition assay (33P transfer), IGFR-1. The settings on record: Table 2, class symbols A-E.

Experiment [10] deals with T10, PDGFRB (Homo sapiens, UniProt P09619).
T10 construct: Kinases are expressed as either kinase domains or full length constructs; made in house
Put plainly: Kinase inhibition assay (33P transfer), PDGFRB. Conditions: read-out: PDGFRB-1.

Some results are limits rather than exact numbers.

T1 sequence (P06239 whole entry, species assumed, the tested form may be a part): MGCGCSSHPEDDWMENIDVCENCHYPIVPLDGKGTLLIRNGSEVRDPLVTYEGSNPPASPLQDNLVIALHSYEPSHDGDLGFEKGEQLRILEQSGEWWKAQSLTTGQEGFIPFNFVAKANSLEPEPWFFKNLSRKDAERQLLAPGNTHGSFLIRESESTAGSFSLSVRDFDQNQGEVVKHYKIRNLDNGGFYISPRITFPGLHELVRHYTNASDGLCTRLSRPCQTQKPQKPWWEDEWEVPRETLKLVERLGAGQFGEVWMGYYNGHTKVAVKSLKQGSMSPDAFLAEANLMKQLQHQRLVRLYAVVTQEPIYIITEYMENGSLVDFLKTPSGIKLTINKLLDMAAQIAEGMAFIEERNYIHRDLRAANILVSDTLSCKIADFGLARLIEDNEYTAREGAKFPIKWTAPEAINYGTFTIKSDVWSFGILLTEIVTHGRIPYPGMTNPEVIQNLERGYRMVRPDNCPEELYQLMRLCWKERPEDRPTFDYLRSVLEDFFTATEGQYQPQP
T8 sequence (Q9Y243 whole entry, the tested form may be a part): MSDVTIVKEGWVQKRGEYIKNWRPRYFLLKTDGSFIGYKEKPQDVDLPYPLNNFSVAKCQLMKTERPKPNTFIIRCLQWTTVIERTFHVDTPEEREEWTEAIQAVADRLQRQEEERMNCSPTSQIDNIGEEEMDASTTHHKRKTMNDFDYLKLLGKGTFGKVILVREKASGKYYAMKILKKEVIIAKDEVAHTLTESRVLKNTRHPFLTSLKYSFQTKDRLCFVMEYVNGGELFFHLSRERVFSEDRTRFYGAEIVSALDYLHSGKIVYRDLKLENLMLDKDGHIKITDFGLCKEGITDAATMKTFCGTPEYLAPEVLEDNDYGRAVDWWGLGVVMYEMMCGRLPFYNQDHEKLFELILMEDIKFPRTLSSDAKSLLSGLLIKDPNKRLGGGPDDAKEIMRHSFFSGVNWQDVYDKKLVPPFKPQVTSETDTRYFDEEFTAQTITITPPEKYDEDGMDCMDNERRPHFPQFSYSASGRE

With `COc1ccc(Nc2ncnc(N(C)c3ccc(S(=O)(=O)O)cc3)n2)cc1OC` [Compound 798], the IC50 in experiment [1] is over 10.8 µM; in [2], over 10.8 µM; in experiment [3] it was over 10.8 µM; in [4], over 10.8 µM; in experiment [5] it was over 10.8 µM; in experiment [6] it was 0.958 to 5.75 µM. Besides, the IC50 was 8.38 to 10.8 µM in [7], over 10.8 µM in [8], over 10.8 µM in experiment [9] and 0.958 to 5.75 µM in [10].
As for `COc1ccc(Nc2ncnc(N(C)c3ccc(C)cc3)n2)cc1OC` [Compound 799], the IC50 in experiment [1] was 1.14 to 6.83 µM; in experiment [2], over 12.8 µM; in experiment [3], over 12.8 µM; in experiment [4], under 1.14 µM; in experiment [5] it was 1.14 to 6.83 µM; in experiment [6], 1.14 to 6.83 µM. Moreover, the IC50 in [7] is 1.14 to 6.83 µM; in experiment [8] it was over 12.8 µM; in experiment [9], 1.14 to 6.83 µM; in [10] it was 1.14 to 6.83 µM.
`COc1ccc(Nc2ncnc(N(C)c3cccc(C)c3)n2)cc1OC` [Compound 800]: the IC50 in experiment [1] was 1.14 to 6.83 µM; in experiment [2] it was over 12.8 µM; in experiment [3], over 12.8 µM; in [4], under 1.14 µM; in [5], 1.14 to 6.83 µM; in experiment [6], 1.14 to 6.83 µM. In addition, the IC50 was 1.14 to 6.83 µM in experiment [7], over 12.8 µM in experiment [8], 9.96 to 12.8 µM in experiment [9] and over 12.8 µM in experiment [10].
As for `COc1ccc(Nc2ncnc(N(C)c3ccc(F)cc3F)n2)cc1OC` [Compound 801], the IC50 was 1.07 to 6.43 µM in [1]; over 12.1 µM in [2]; over 12.1 µM in [3]; under 1.07 µM in [4]; 9.37 to 12.1 µM in [5]; 6.43 to 9.37 µM in experiment [6]. The IC50 in experiment [7] was 1.07 to 6.43 µM; in [8], over 12.1 µM; in experiment [9], over 12.1 µM; in experiment [10], 1.07 to 6.43 µM.
As to `COc1ccc(Nc2ncnc(N(C)C3CCN(Cc4ccccc4)C3)n2)cc1OC` (centres unmarked) [Compound 802], the IC50 in experiment [1], in [2], in [3], in [4], in [5] and in [6] was over 10.7 µM each time. Besides, the IC50 was over 10.7 µM in experiment [7], over 10.7 µM in [8], over 10.7 µM in [9] and 0.951 to 5.71 µM in experiment [10].
Consider `COc1ccc(Nc2ncnc(N(C)[C@H](C)c3ccccc3)n2)cc1OC` [Compound 803], for which the IC50 in [1] is 1.09 to 6.57 µM; in experiment [2] it was over 12.3 µM; in experiment [3] it was over 12.3 µM; in [4], 1.09 to 6.57 µM; in experiment [5], 6.57 to 9.58 µM; in experiment [6], over 12.3 µM. The IC50 in [7], in experiment [8], in [9] and in experiment [10] was over 12.3 µM throughout.
In the case of `CN(c1cccc(Cl)c1)c1ncnc(Nc2cc(Cl)c(Cl)c(Cl)c2)n1` [Compound 804], the IC50 in experiment [1], in [2], in experiment [3], in experiment [4], in experiment [5] and in experiment [6] was over 10.8 µM each time. For the same compound, the IC50 is over 10.8 µM in experiment [7], over 10.8 µM in experiment [8], over 10.8 µM in experiment [9] and 8.43 to 10.8 µM in [10].
In the case of `COC(=O)c1ccc(-c2cc(Nc3ncnc(NCc4ccco4)n3)[nH]n2)cc1` [Compound 805], the IC50 is over 11.5 µM in experiment [1]; over 11.5 µM in experiment [2]; 6.13 to 8.94 µM in experiment [3]; over 11.5 µM in [4]; over 11.5 µM in experiment [5]; over 11.5 µM in [6]. Also, the IC50 in experiment [7] is 6.13 to 8.94 µM; in [8] it was over 11.5 µM; in experiment [9] it was 6.13 to 8.94 µM; in experiment [10], over 11.5 µM.
Consider `COC(=O)c1ccc(-c2cc(Nc3ncnc(NCCc4c[nH]c5ccccc45)n3)[nH]n2)cc1` [Compound 806], for which the IC50 in experiment [1] is 0.88 to 5.28 µM; in experiment [2], over 9.9 µM; in experiment [3] it was 0.88 to 5.28 µM; in [4] it was 0.88 to 5.28 µM; in experiment [5], 0.88 to 5.28 µM; in experiment [6], 0.88 to 5.28 µM. In addition, the IC50 was 0.88 to 5.28 µM in experiment [7], over 9.9 µM in experiment [8], 0.88 to 5.28 µM in experiment [9] and over 9.9 µM in [10].
With `COC(=O)c1ccc(-c2cc(Nc3ncnc(Nc4ccc(N5CCOCC5)cc4)n3)[nH]n2)cc1` [Compound 807], the IC50 was over 9.52 µM in experiment [1]; over 9.52 µM in experiment [2]; 5.08 to 7.41 µM in experiment [3]; 7.41 to 9.52 µM in [4]; 0.847 to 5.08 µM in experiment [5]; over 9.52 µM in experiment [6]. Further, the IC50 in experiment [7] was under 0.847 µM; in [8] it was over 9.52 µM; in experiment [9], 0.847 to 5.08 µM; in [10], over 9.52 µM.
With `COC(=O)c1ccc(-c2cc(Nc3ncnc(NCCN4CCOCC4)n3)[nH]n2)cc1` [Compound 808], the IC50 is over 10.6 µM in experiment [1]; over 10.6 µM in experiment [2]; over 10.6 µM in [3]; 5.65 to 8.25 µM in experiment [4]; over 10.6 µM in experiment [5]; over 10.6 µM in experiment [6]. The IC50 in [7] is over 10.6 µM; in experiment [8], over 10.6 µM; in experiment [9] it was over 10.6 µM; in experiment [10], 0.942 to 5.65 µM.
On to `COC(=O)c1ccc(-c2cc(Nc3ncnc(NCc4cccnc4)n3)[nH]n2)cc1` [Compound 809], for which the IC50 in experiment [1] is over 11.2 µM; in experiment [2] it was over 11.2 µM; in experiment [3], 0.994 to 5.96 µM; in [4] it was over 11.2 µM; in experiment [5], 8.7 to 11.2 µM; in experiment [6], over 11.2 µM. The IC50 was 5.96 to 8.7 µM in experiment [7], 8.7 to 11.2 µM in experiment [8], 5.96 to 8.7 µM in experiment [9] and 8.7 to 11.2 µM in [10].
As for `COC(=O)c1ccc(-c2cc(Nc3ncnc(Nc4cc(F)cc(F)c4)n3)[nH]n2)cc1` [Compound 810], the IC50 in experiment [1], in experiment [2], in experiment [3], in [4], in experiment [5] and in experiment [6] was over 10.6 µM throughout. In addition, the IC50 in experiment [7] is over 10.6 µM; in [8] it was over 10.6 µM; in experiment [9], 8.27 to 10.6 µM; in [10], over 10.6 µM.
As for `COC(=O)c1ccc(-c2cc(Nc3ncnc(Nc4cc(Cl)cc(Cl)c4)n3)[nH]n2)cc1` [Compound 811], the IC50 in experiment [1], in experiment [2], in experiment [3], in experiment [4], in [5] and in [6] was over 9.86 µM in each case. Besides, the IC50 in experiment [7] was over 9.86 µM; in experiment [8] it was over 9.86 µM; in experiment [9] it was 5.26 to 7.67 µM; in [10] it was over 9.86 µM.

The values above are taken from patent US7074789B2, “Kinase inhibitors” (Amgen Inc., priority 1999, dated 2006).
